The source made the active and inactive calls.
Columns and labels:
HEK293 [1] = assay: cells; conditions: Homo sapiens
HEK293 [2] = assay: cells; type: functional, cell-based; conditions: Homo sapiens
[3] = biological target: T1, Nucleotide-binding oligomerization domain-containing protein 1 (Homo sapiens, UniProt Q9Y239); assay: NOD1 signaling inhibitors, SAR follow-up, revised (AID 2333); type: functional
T1 sequence (Q9Y239 whole entry): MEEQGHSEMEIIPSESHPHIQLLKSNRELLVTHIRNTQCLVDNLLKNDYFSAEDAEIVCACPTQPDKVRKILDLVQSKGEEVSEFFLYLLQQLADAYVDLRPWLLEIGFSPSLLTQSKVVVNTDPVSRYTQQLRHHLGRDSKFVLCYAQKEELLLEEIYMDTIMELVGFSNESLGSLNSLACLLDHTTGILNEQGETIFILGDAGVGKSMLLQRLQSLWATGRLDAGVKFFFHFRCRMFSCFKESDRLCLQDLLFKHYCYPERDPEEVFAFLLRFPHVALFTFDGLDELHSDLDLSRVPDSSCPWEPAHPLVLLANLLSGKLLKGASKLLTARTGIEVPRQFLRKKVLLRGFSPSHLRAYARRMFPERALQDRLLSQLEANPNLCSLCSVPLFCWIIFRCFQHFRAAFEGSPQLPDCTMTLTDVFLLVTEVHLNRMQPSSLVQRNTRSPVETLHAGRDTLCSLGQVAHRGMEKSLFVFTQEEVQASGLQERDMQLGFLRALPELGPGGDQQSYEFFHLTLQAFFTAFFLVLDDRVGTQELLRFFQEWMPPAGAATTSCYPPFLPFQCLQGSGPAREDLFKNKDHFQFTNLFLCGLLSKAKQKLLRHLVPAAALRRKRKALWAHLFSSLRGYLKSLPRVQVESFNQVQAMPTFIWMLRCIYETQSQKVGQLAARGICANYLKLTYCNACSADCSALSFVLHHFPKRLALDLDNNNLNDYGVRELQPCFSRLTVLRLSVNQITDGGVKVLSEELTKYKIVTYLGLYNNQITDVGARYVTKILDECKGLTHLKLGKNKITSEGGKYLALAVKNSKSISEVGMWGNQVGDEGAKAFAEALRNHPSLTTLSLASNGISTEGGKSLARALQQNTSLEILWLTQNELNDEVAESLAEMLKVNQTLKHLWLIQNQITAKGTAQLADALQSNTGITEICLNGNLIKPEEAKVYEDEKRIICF

HEK293 [4] = assay: NOD1 signaling inhibitors, primary screen, cell-based, luminescence, uHTS (AID 1578); type: functional; conditions: Homo sapiens
[5] = biological target: T2, Nucleotide-binding oligomerization domain-containing protein 2 (Homo sapiens, UniProt Q9HC29); assay: NOD2 signaling inhibitors, cell-based, luminescence, uHTS, HEK293 (AID 1566); type: functional
[6] = HEp-2 cell cytotoxicity, dose response, cytotoxicity control for RSV inhibitor project, HTS (AID 2410); type: functional; conditions: human respiratory syncytial virus
Cysteine protease ATG4B = biological target: T3, Cysteine protease ATG4B (Homo sapiens, UniProt Q9Y4P1); type: functional;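 further: Fluorescence-based dose-response confirmation assay measuring inhibition of ATG4B activity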
T3 sequence (Q9Y4P1 whole entry): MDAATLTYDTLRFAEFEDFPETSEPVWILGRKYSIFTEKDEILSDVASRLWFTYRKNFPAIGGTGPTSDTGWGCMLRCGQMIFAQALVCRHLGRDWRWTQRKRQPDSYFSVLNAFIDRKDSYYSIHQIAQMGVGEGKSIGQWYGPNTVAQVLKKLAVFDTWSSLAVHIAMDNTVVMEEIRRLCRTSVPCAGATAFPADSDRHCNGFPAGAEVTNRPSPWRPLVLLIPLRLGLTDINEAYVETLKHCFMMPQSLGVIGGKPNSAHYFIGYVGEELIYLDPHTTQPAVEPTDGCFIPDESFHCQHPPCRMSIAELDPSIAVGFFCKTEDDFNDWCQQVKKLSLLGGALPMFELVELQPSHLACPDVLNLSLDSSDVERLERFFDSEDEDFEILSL

[7] = biological target: T2, Nucleotide-binding oligomerization domain-containing protein 2; assay: PubChem AID 2334; type: functional
HEK293 [8] = assay: cells; type: functional, cell-based; conditions: Homo sapiens; remark: listed apart in the source
HEK293 [9] = assay: cells; type: functional, cell-based; conditions: Homo sapiens; remark: listed apart in the source
HEK293 [10] = assay: NOD2 signaling inhibitors in MDP-stimulated cells, cell-based, uHTS, luminescence (AID 2001); type: functional; conditions: Homo sapiens
Tumor necrosis factor = Tumor necrosis factor (Homo sapiens, UniProt P01375); assay: TNFa-triggered NF-kB activation inhibitors, SAR follow-up, cell-based, revised (AID 2337); type: functional
Phospholipase A2 = Phospholipase A2 (Homo sapiens, UniProt P04054); type: functional;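 further: confirmatory dose-response counterscreen on phospholipase A2, testing hits that came from an ultra-high-throughput screen for ATG4B inhibitors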
cells [11] = type: functional, cell-based
[12] = HepG2 cell cytotoxicity, dose response, cytotoxicity control for Shn3 inhibitor project, CellTiter-Glo, cherry-picked (AID 624134); type: functional, cell-based
[13] = biological target: T4, Type-1 angiotensin II receptor (Homo sapiens, UniProt P30556); assay: AT1 receptor agonists, dose response, selectivity assay for APJ receptor agonist project, cell-based, uHTS hits (AID 488865); type: functional;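 further: beta-arrestin recruitment to AT1 measured by enzyme fragment complementation luminescence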
T4 sequence (P30556 whole entry): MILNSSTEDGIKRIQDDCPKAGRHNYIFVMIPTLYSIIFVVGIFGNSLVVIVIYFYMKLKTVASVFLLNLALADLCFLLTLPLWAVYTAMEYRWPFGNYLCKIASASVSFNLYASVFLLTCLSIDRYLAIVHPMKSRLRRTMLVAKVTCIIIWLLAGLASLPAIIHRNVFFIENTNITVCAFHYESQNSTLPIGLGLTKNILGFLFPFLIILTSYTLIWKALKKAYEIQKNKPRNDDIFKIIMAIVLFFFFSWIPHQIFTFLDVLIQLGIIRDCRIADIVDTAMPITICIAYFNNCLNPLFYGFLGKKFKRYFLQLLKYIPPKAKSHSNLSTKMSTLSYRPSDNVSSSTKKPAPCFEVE

INS1 = assay: beta cell apoptosis inhibitors, cytokine rescue, dose response, luminescence, retest (AID 449756); type: functional, cell-based; conditions: Rattus norvegicus;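 further: cell death triggered by IL-1 beta plus TNF-alpha plus IFN-gamma mixture; protective hits raise ATP signal compared with cytokine alone wells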
cells [14] = type: functional, cell-based; remark: listed apart in the source
[15] = cytotoxicity toward NIH3T3 fibroblasts, dose response, counter-screen, cell-based, ATP luminescence, mouse fibroblasts (AID 2010); type: functional;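 further: cells exposed to compound for about 90 hours before reading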
[16] = biological target: T5, Probable nicotinate-nucleotide adenylyltransferase (Staphylococcus aureus (strain N315), UniProt P65502); type: functional, Staphylococcus aureus subsp. aureus N315;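 on IC50 Mean: confirmatory dose-response retesting of NadD inhibitor hits first found in an ultra-high-throughput screen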
[17] = Shn3 3'UTR reporter inhibitors, dose response, cell-based, Clone20 osteoblasts, firefly luciferase, cherry-picked (AID 624132); type: functional;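 further: firefly luciferase luminescence from reporter carrying the Shn3 3'UTR in osteoblasts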
Streptococcus = assay: Group A Streptococcus viability loss, dose response, counter-screen for streptokinase expression inhibitor project, luminescence, BacTiterGlo (AID 1915); type: functional, organism-based;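 further: potency for reduction of bacterial viability or growth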
[18] = control 3'UTR Renilla luciferase suppression, dose response, counter-screen for Shn3 inhibitor project, cell-based, Clone20-Shn3RL, cherry-picked (AID 624133); type: functional
[19] = biological target: T5, Probable nicotinate-nucleotide adenylyltransferase; type: functional, Staphylococcus aureus subsp. aureus N315; conditions: read-out: IC50_Mean
Streptokinase A = biological target: T6, Streptokinase A (Streptococcus pyogenes serotype M1, UniProt P10520); assay: S. pyogenes streptokinase expression inhibitors, potency, dose response, plasminogen activation absorbance, OD405 (AID 1914); type: functional, Streptococcus pyogenes M1 GAS;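 further: secreted streptokinase activity via plasminogen activation per viability signal from cell pellet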
T6 sequence (P10520 whole entry): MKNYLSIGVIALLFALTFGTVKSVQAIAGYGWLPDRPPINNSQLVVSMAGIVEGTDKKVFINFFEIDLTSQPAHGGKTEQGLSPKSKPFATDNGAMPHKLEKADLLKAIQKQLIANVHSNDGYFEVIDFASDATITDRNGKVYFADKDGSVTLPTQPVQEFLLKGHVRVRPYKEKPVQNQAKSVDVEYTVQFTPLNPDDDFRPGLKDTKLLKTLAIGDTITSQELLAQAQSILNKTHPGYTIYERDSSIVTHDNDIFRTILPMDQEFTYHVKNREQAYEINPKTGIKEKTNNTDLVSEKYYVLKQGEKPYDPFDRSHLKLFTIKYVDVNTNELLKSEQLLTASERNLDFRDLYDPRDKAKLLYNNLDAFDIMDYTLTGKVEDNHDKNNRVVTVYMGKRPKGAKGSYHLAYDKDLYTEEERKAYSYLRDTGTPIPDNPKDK

[20] = test system: Streptococcus sp. 'group A'; assay: growth inhibition of control SK(-) GAS strain, dose response, counter-screen for streptokinase expression inhibitor project, luminescence, kanamycin, BacTiterGlo, confirmation (AID 1900); type: functional, organism-based
[21] = inhibitors of intracellular T. cruzi replication, confirmation, NIH3T3 host cells, beta-gal luminescence (AID 2044); type: functional, cell-based;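 further: intracellular parasites grown in NIH/3T3 mouse fibroblasts as host cells; luminescent beta-galactosidase reporter signal from transgenic T. cruzi replicating inside host cells; inhibitors lower the luminescence signal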

T2 sequence (Q9HC29 whole entry, the tested form may be a part): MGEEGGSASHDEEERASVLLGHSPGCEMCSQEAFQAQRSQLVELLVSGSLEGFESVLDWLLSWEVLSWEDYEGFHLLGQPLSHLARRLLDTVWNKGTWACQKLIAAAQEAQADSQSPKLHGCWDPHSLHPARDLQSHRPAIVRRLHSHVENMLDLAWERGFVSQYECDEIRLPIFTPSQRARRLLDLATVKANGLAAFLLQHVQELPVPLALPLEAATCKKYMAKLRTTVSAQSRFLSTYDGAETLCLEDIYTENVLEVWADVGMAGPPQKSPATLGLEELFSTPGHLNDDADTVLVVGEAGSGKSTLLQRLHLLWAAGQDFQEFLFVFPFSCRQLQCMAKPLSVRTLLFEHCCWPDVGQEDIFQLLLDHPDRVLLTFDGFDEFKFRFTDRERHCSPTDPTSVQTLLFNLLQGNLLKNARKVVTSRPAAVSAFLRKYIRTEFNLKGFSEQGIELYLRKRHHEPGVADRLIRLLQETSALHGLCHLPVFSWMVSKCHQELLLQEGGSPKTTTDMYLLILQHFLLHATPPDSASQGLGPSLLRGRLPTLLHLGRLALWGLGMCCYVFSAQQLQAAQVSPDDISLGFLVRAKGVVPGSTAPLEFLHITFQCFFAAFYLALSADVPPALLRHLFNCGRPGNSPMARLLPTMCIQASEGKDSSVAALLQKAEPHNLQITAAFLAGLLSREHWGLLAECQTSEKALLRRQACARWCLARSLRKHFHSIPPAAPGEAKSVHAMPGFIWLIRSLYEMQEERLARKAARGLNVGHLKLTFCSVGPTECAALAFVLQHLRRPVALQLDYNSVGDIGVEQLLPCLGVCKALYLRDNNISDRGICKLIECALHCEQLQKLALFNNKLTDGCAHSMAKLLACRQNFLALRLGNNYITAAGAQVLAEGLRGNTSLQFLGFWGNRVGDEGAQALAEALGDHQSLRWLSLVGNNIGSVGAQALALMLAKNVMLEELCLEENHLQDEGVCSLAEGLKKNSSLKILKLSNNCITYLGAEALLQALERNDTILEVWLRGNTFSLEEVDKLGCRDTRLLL
T5 sequence (P65502 whole entry): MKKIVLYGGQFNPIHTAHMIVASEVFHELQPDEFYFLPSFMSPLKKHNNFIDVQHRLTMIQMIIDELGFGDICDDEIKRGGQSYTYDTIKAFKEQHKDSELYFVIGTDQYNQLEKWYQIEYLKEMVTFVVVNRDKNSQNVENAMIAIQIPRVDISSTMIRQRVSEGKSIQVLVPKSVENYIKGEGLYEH
Phospholipase A2, sequence (P04054 whole entry): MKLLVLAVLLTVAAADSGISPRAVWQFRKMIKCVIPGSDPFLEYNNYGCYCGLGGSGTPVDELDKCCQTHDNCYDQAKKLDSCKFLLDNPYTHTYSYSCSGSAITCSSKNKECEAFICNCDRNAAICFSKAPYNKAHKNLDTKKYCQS
Tumor necrosis factor, sequence (P01375 whole entry): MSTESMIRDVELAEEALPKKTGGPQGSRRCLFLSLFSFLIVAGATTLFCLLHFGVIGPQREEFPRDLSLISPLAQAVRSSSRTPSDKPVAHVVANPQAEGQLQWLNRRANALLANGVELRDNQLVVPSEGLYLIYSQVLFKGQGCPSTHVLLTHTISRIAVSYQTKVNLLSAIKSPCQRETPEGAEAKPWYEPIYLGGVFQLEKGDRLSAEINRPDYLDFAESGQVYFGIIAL

In the case of `O=C(CSc1nc2ccccc2c(=O)n1Cc1ccccc1)Nc1ccc(Br)cc1C(=O)O`, the IC50 (HEK293 [1]) is reported as > 20 µM (inactive), the IC50 (HEK293 [2]) is reported as > 20 µM (inactive) and the IC50 [3] is reported as 5.99 µM (active). The EC50 (HEK293 [4]) was 6.11 µM (active), the EC50 [5] was 7.92 µM (active) and the CC50 [6] was 11.1 µM (active). For the same compound, the IC50 (Cysteine protease ATG4B) was 13.9 µM (active), the IC50 [7] was 7.04 µM (active) and the IC50 (HEK293 [8]) was > 20 µM (inactive). The IC50 (HEK293 [9]) was > 20 µM (inactive), the IC50 (HEK293 [10]) was 10.2 µM (inactive) and the IC50 (Tumor necrosis factor) was 5.7 µM (active). For the same compound, the IC50 (Phospholipase A2) was 12.1 µM (active).
In the case of `Cc1cc(C)c2nc(NNC(=O)c3ccc(S(=O)(=O)N4CCc5ccccc5C4)cc3)sc2c1`, the EC50 (cells [11]) is reported as > 350 µM (not active), the AC50 [12] is reported as 2.91 µM (active) and the EC50 [13] is reported as > 100 µM (inactive). For the same compound, the AC50 (INS1) was 2.19 µM (active), the EC50 (cells [14]) was 7.06 µM (active) and the EC50 [15] was < 6 µM (inconclusive). For the same compound, the IC50 [16] was 7.18 µM (active), the AC50 [17] was 1.98 µM (active) and the EC50 (Streptococcus) was 61.5 µM (inconclusive). The AC50 [18] was 3.35 µM (active), the IC50 [19] was 38.1 µM (active) and the EC50 (Streptokinase A) was > 150 µM (not active). For the same compound, the EC50 [20] was 0.458 µM (active) and the EC50 [21] was 0.661 µM (active).

Reference: ChEMBL document CHEMBL1201862, “PubChem BioAssay data set” (2004)
